Results taken from patent US20190055231A1, “BACE1 INHIBITORS” (Hoffmann-La Roche Inc., priority 2016, published 2019).

What was measured:
hERG channel [1] = molecular target: T1, hERG channel (Homo sapiens, UniProt Q12809); assay: hERG patch liner assay; format: cell-based
Source text: The methods to determine the hERG IC20 patch liner values were described in Toward a New Gold Standard for Early Safety: Automated Temperature-Controlled hERG Test on the PatchLiner. Polonchuk L., Front Pharmacol. 2012 Jan. 26; 3:3. (doi: 10.3389/fphar.2012.00003. eCollection 2012.) PMID:22303293

hERG channel [2] = molecular target: T1, hERG channel; assay: hERG IC20 assay; format: cell-based; conditions: human, hERG IC20 assay
Source text: The methods to determine the hERG IC20 values was described in Industrializing electrophysiology: HT automated patch clamp on SyncroPatch® 96 using instant frozen cells. Polonchuk L., Methods Mol Biol. 2014; 1183:81-92. (doi: 10.1007/978-1-4939-1096-0_5.) PMID:25023303
QT prolongation is a cardiovascular risk caused by drug candidates which inhibit the hERG channel (human ether a go-go). A sufficient safety margin between the hERG IC20 value and the free plasma concentration necessary to achieve the envisaged thereapeutic effects is desired (ICH. The nonclinical evaluation of the potential for delayed ventricular repolarization (QT interval prolongation) by human pharmaceuticals (S7B), issued as CPMP/ICH/423/02, adopted by CHMP in May 2005 (http://www.ich.org/cache/compo/276-254-1.html; Redfern W S, Carlsson L, Davis A S, Lynch W G, MacKenzie I, Palethorpe S, Siegl P K, Strang I, Sullivan A T, Wallis R, Camm A J, Hammond T G. Relationships between preclinical cardiac electrophysiology, clinical QT interval prolongation and torsade de pointes for a broad range of drugs: evidence for a provisional safety margin in drug development. Cardiovasc Res. 2003 Apr. 1; 58(1):32-45.)). Reducing the activity against efflux transporters expressed at the blood-brain-barrier such as P-glycoprotein P-gp, might result in reduction of the free plasma concentration by optimizing brain penetration.

[3] = system: Aβ40 in brain of wild-type mice; assay: Mouse acute in vivo model (inhibition of Aβ40 in brain of wild-type mice); conditions: 4 h post dose
Procedure: Mouse Acute In Vivo Model (Inhibition of Aβ40 in Brain of Wild-Type Mice)
Single Dose Efficacy in Mice
The mouse single dose efficacy was measured in brain homogenate from C57Bl/6J wildtype mice after DEA extraction as described in H. Hilpert et al., J. Med. Chem. 2013, 56, 3980-3995 (dx.doi.org/10.1021/jm400225m).
Aβ 40 concentration was determined after solid phase extraction as described above and following a modified protocol from Perkin-Elmer with a commercially available antibody against the N-terminal part of rat Aβ (252Q6, Invitrogen cat. No. AMB0062) and an in-house C-terminal specific anti-Aβ40 antibody (BAP-24, Brockhaus M. et al., J. Neuroreport, 1998, 9:1481-1486) bound to acceptor beads (PerkinElmer, Cat. 6772002). 20 μl analyte per well (reconstituted extracts or standard) were loaded to a White Optiplate-96 (Perkin-Elmer, Cat#6005290). Then, a mixture of biotinylated BAP24 antibody (1:2000 diluted at approximately 1 nM final concentration) and antibody 252Q6 bound to AlphaLISA acceptor beads (Perkin-Elmer cat. No. 6772002 (1:100 diluted, 10 ug/mL final concentration) in 1× AlphaLISA buffer (Perkin-Elmer, AL000F) was added. After 1 hour room temperature incubation in the dark, 20 uL of a streptavidin coated donor beads dilution (40 μg/mL) were added and incubated for 30 minutes in the dark. Light emission at 615 nm was recorded using an EnVision AlphaScreen Reader (Perkin-Elmer). Levels of Aβ40 were calculated as percentage of the baseline samples from non-treated animals.
Aβ40 lowering was determined after oral administration in wild-type mice (C57Bl/6J mice, n=3-4) 4 h post dosing. Wild-type mice were used as they have a normal physiological level of APP expression and are thus expected to provide a better physiological model for Aβ-peptide production than APP-transgenic organisms. In vivo efficacy is a key factor for appropriate drug candidates, being more relevant than in vitro activities.

T1 sequence (Q12809 whole entry): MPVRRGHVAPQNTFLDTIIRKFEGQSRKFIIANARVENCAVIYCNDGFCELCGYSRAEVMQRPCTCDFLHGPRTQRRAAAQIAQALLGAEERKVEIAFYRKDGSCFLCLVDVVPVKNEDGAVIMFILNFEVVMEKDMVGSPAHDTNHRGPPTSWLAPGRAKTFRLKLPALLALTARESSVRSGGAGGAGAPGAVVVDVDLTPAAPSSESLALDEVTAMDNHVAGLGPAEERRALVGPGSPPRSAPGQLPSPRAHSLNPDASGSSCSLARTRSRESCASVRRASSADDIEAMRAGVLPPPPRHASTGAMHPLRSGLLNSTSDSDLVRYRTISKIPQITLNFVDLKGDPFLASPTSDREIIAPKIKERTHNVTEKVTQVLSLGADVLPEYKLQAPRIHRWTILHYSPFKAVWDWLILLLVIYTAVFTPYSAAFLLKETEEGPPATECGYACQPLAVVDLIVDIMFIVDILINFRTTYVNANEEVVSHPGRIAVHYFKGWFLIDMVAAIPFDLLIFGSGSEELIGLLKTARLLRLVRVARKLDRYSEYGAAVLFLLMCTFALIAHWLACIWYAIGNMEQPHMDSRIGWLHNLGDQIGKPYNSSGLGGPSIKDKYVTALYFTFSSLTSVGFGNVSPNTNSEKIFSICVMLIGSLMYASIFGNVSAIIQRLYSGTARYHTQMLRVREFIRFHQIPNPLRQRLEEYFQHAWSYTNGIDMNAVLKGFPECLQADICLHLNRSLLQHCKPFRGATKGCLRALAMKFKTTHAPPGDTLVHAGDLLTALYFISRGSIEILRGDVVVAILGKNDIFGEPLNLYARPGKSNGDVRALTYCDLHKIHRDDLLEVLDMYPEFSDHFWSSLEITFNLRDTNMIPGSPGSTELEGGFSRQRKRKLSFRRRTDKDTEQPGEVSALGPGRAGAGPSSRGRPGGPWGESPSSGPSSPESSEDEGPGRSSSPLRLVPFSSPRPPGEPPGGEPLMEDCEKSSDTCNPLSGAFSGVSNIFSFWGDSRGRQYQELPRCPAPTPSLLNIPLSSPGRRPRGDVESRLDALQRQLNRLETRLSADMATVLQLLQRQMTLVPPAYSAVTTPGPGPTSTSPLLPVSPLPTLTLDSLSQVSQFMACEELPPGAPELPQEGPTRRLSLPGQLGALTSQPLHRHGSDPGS

SMILES: Cc1cc(C#N)cnc1C(=O)Nc1ccc(F)c([C@@]2(C)N=C(N)O[C@H](C(F)(F)F)[C@@H]2F)n1 [Example 1, N-(6-((4R,5R,6S)-2-amino-5-fluoro-4-methyl-6-(trifluoromethyl)-5,6-dihydro-4H-1,3-oxazin-4-yl)-5-fluoropyridin-2-yl)-5-cyano-3-methylpicolinamide]
- improvement of the hERG safety margin versus comparator 6 (hERG channel [1]; at approximately 80% reduction of Aβ40 in rat CSF): 17 fold
- IC20 (hERG channel [1]; human, hERG patchliner assay): 2340 nM
- IC20 (hERG channel [2]; instant frozen cells (hERG channel; cell line not named)): > 1000 nM
- IC20 (hERG channel [2]): > 1000 nM
- Brain Aβ-lowering 3 mg/kg ([3]; single p.o. dose 3 mg/kg): 58%
- Brain Aβ-lowering 10 mg/kg ([3]; single p.o. dose 10 mg/kg): 92%
